US20250275540A1, “USE OF PROTOPORPHYRINOGEN OXIDASE” (BEIJING DABEINONG BIOTECHNOLOGY CO., LTD., priority 2022, published 2025)

Test system: transgenic maize plants
Experiment: Detection of the herbicide tolerance of the transgenic maize plants
Type: in vivo
Details: for The grade of pesticide damage/plant: 0 / The grade of pesticide damage/plant: 1 / The grade of pesticide damage/plant: 2 / The grade of pesticide damage/plant: 3: 7 DAT
Description: The transformed Arabidopsis thaliana T1 plants were initially selected using glufosinate herbicide. The Arabidopsis thaliana T1 plants (PPOA-01) into which the PPOA-01 nucleotide sequence was introduced, the Arabidopsis thaliana T1 plants (PPOB-01) into which the PPOB-01 nucleotide sequence was introduced, the Arabidopsis thaliana T1 plants (PPOC-01) into which the PPOC-01 nucleotide sequence was introduced, the Arabidopsis thaliana T1 plants (PPOD-01) into which the PPOD-01 nucleotide sequence was introduced, the Arabidopsis thaliana T1 plants (PPOE-01) into which the PPOE-01 nucleotide sequence was introduced, the Arabidopsis thaliana T1 plants (PPOF-01) into which the PPOF-01 nucleotide sequence was introduced, the Arabidopsis thaliana T1 plants (PPO-AP-01) into which the PPO-AP-01 nucleotide sequence was introduced, and the Arabidopsis thaliana T1 plants (control vector) into which the control vector was introduced, the wild-type Arabidopsis thaliana plants (CK) (with 24 plants being included in each genotype) (18 days after sowing) were sprayed with saflufenacil at three concentrations (25 g ai/ha (one-fold field concentration, 1×), 100 g ai/ha (four-fold field concentration, 4×), and 0 g ai/ha (water, 0×)), oxyfluorfen at three concentrations (180 g ai/ha (one-fold field concentration, 1×), 720 g ai/ha (four-fold field concentration, 4×), and 0 g ai/ha (water, 0×)), and flumioxazin at three concentrations (60 g ai/ha (one-fold field concentration, 1×), 240 g ai/ha (four-fold field concentration, 4×), and 0 g ai/ha (water, 0×) to determine the tolerance of Arabidopsis thaliana to the herbicides. After 7 days of spraying (7 DAT), the damage level of each plant caused by the herbicide was evaluated according to the average of the damage levels (%) of plants (the average of the damage levels (%) of plants=the injured leaf area/the total leaf area×100%), i.e., the grade of pesticide damage: grade 0 means that the growth status of plants is essentially consistent with those sprayed with the blank solvent (water); grade 1 means that the average of the damage levels of plants is less than 10%; grade 2 means that the average of the damage levels of plants is greater than 10%; and grade 3 means that the average of the damage levels of plants is 100%. The plants having a growth status falling within grades 0 and 1 are classified as highly resistant plants; those having a growth status falling within grade 2 are classified as poorly resistant plants; and those having a growth status falling within grade 3 are classified as non-resistant plants.
The maize plants into which the PPOA-02 nucleotide sequence was introduced, the maize plants into which the PPOB-02 nucleotide sequence was introduced, the maize plants into which the PPOC-02 nucleotide sequence was introduced, the maize plants into which the PPOD-02 nucleotide sequence was introduced, the maize plants into which the PPOE-02 nucleotide sequence was introduced, the maize plants into which the PPOF-02 nucleotide sequence was introduced, the maize plants into which the PPO-AP-02 nucleotide sequence was introduced, the maize plants (control vector) into which the control vector was introduced, and the wild-type maize plants (CK) (with 16 plants being included in each genotype) (18 days after sowing) were taken and sprayed with saflufenacil at three concentrations (50 g ai/ha (two-fold field concentration, 2×), 100 g ai/ha (four-fold field concentration, 4×), and 0 g ai/ha (water, 0×)), oxyfluorfen at three concentrations (360 g ai/ha (two-fold field concentration, 2×), 720 g ai/ha (four-fold field concentration, 4×), and 0 g ai/ha (water, 0×), and flumioxazin at three concentrations (120 g ai/ha (two-fold field concentration, 2×), 240 g ai/ha (four-fold field concentration, 4×), and 0 g ai/ha (water, 0×) to determine the tolerance of maize plants to the herbicides. […]

[1] = genotype Control vector, 50 g ai/ha
[2] = genotype Control vector, 100 g ai/ha
[3] = genotype PPO-AP-02, 100 g ai/ha

CC(C)N(C)S(=O)(=O)NC(=O)c1cc(-n2c(=O)cc(C(F)(F)F)n(C)c2=O)c(F)cc1Cl [saflufenacil, N′-[2-chloro-4-fluoro-5-(3-methyl-2,6-dioxo-4-(trifluoromethyl)-3,6-dihydro-1 (2H)-pyrimidine)benzoyl]-N-isopropyl-N-methylsulfamide]
The grade of pesticide damage/plant: 0 (genotype CK, 50 g ai/ha): 0 plant
The grade of pesticide damage/plant: 1 (genotype CK, 50 g ai/ha): 0 plant
The grade of pesticide damage/plant: 2 (genotype CK, 50 g ai/ha): 0 plant
The grade of pesticide damage/plant: 3 (genotype CK, 50 g ai/ha): 16 plant
The grade of pesticide damage/plant: 0 (genotype CK, 100 g ai/ha): 0 plant
The grade of pesticide damage/plant: 1 (genotype CK, 100 g ai/ha): 0 plant
The grade of pesticide damage/plant: 2 (genotype CK, 100 g ai/ha): 0 plant
The grade of pesticide damage/plant: 3 (genotype CK, 100 g ai/ha): 16 plant
The grade of pesticide damage/plant: 0 [1]: 0 plant
The grade of pesticide damage/plant: 1 [1]: 0 plant
The grade of pesticide damage/plant: 2 [1]: 0 plant
The grade of pesticide damage/plant: 3 [1]: 16 plant
The grade of pesticide damage/plant: 0 [2]: 0 plant
The grade of pesticide damage/plant: 1 [2]: 0 plant
The grade of pesticide damage/plant: 2 [2]: 0 plant
The grade of pesticide damage/plant: 3 [2]: 16 plant
The grade of pesticide damage/plant: 0 (genotype PPO-AP-02, 50 g ai/ha): 0 plant
The grade of pesticide damage/plant: 1 (genotype PPO-AP-02, 50 g ai/ha): 0 plant
The grade of pesticide damage/plant: 2 (genotype PPO-AP-02, 50 g ai/ha): 7 plant
The grade of pesticide damage/plant: 3 (genotype PPO-AP-02, 50 g ai/ha): 9 plant
The grade of pesticide damage/plant: 0 [3]: 0 plant
The grade of pesticide damage/plant: 1 [3]: 0 plant
The grade of pesticide damage/plant: 2 [3]: 1 plant
The grade of pesticide damage/plant: 3 [3]: 15 plant
tolerance to the herbicide (in words) (genotype PPO-AP-02, four-fold field concentration): basically no tolerance
share of the plants that exhibited no tolerance (genotype PPO-AP-02, two-fold field concentration): about 56%
The grade of pesticide damage/plant: 0 (genotype PPOA-02, 50 g ai/ha): 16 plant
The grade of pesticide damage/plant: 1 (genotype PPOA-02, 50 g ai/ha): 0 plant
The grade of pesticide damage/plant: 2 (genotype PPOA-02, 50 g ai/ha): 0 plant
The grade of pesticide damage/plant: 3 (genotype PPOA-02, 50 g ai/ha): 0 plant
The grade of pesticide damage/plant: 0 (genotype PPOA-02, 100 g ai/ha): 16 plant
The grade of pesticide damage/plant: 1 (genotype PPOA-02, 100 g ai/ha): 0 plant
The grade of pesticide damage/plant: 2 (genotype PPOA-02, 100 g ai/ha): 0 plant
The grade of pesticide damage/plant: 3 (genotype PPOA-02, 100 g ai/ha): 0 plant
The grade of pesticide damage/plant: 0 (genotype PPOB-02, 50 g ai/ha): 16 plant
The grade of pesticide damage/plant: 1 (genotype PPOB-02, 50 g ai/ha): 0 plant
The grade of pesticide damage/plant: 2 (genotype PPOB-02, 50 g ai/ha): 0 plant
The grade of pesticide damage/plant: 3 (genotype PPOB-02, 50 g ai/ha): 0 plant
The grade of pesticide damage/plant: 0 (genotype PPOB-02, 100 g ai/ha): 16 plant
The grade of pesticide damage/plant: 1 (genotype PPOB-02, 100 g ai/ha): 0 plant
The grade of pesticide damage/plant: 2 (genotype PPOB-02, 100 g ai/ha): 0 plant
The grade of pesticide damage/plant: 3 (genotype PPOB-02, 100 g ai/ha): 0 plant
The grade of pesticide damage/plant: 0 (genotype PPOC-02, 50 g ai/ha): 16 plant
The grade of pesticide damage/plant: 1 (genotype PPOC-02, 50 g ai/ha): 0 plant
The grade of pesticide damage/plant: 2 (genotype PPOC-02, 50 g ai/ha): 0 plant
The grade of pesticide damage/plant: 3 (genotype PPOC-02, 50 g ai/ha): 0 plant
The grade of pesticide damage/plant: 0 (genotype PPOC-02, 100 g ai/ha): 16 plant
The grade of pesticide damage/plant: 1 (genotype PPOC-02, 100 g ai/ha): 0 plant
The grade of pesticide damage/plant: 2 (genotype PPOC-02, 100 g ai/ha): 0 plant
The grade of pesticide damage/plant: 3 (genotype PPOC-02, 100 g ai/ha): 0 plant
The grade of pesticide damage/plant: 0 (genotype PPOD-02, 50 g ai/ha): 16 plant
The grade of pesticide damage/plant: 1 (genotype PPOD-02, 50 g ai/ha): 0 plant
The grade of pesticide damage/plant: 2 (genotype PPOD-02, 50 g ai/ha): 0 plant
The grade of pesticide damage/plant: 3 (genotype PPOD-02, 50 g ai/ha): 0 plant
The grade of pesticide damage/plant: 0 (genotype PPOD-02, 100 g ai/ha): 16 plant
The grade of pesticide damage/plant: 1 (genotype PPOD-02, 100 g ai/ha): 0 plant
The grade of pesticide damage/plant: 2 (genotype PPOD-02, 100 g ai/ha): 0 plant
The grade of pesticide damage/plant: 3 (genotype PPOD-02, 100 g ai/ha): 0 plant
The grade of pesticide damage/plant: 0 (genotype PPOE-02, 50 g ai/ha): 16 plant
The grade of pesticide damage/plant: 1 (genotype PPOE-02, 50 g ai/ha): 0 plant
The grade of pesticide damage/plant: 2 (genotype PPOE-02, 50 g ai/ha): 0 plant
The grade of pesticide damage/plant: 3 (genotype PPOE-02, 50 g ai/ha): 0 plant
The grade of pesticide damage/plant: 0 (genotype PPOE-02, 100 g ai/ha): 16 plant
The grade of pesticide damage/plant: 1 (genotype PPOE-02, 100 g ai/ha): 0 plant
The grade of pesticide damage/plant: 2 (genotype PPOE-02, 100 g ai/ha): 0 plant
The grade of pesticide damage/plant: 3 (genotype PPOE-02, 100 g ai/ha): 0 plant
The grade of pesticide damage/plant: 0 (genotype PPOF-02, 50 g ai/ha): 16 plant
The grade of pesticide damage/plant: 1 (genotype PPOF-02, 50 g ai/ha): 0 plant
The grade of pesticide damage/plant: 2 (genotype PPOF-02, 50 g ai/ha): 0 plant
The grade of pesticide damage/plant: 3 (genotype PPOF-02, 50 g ai/ha): 0 plant
The grade of pesticide damage/plant: 0 (genotype PPOF-02, 100 g ai/ha): 10 plant
The grade of pesticide damage/plant: 1 (genotype PPOF-02, 100 g ai/ha): 6 plant
The grade of pesticide damage/plant: 2 (genotype PPOF-02, 100 g ai/ha): 0 plant
The grade of pesticide damage/plant: 3 (genotype PPOF-02, 100 g ai/ha): 0 plant
tolerance to the herbicide (in words) (genotypes PPOA-02 to PPOF-02, four-fold field concentration): high-resistant tolerance
tolerance to the herbicide (in words) (genotypes PPOA-02 to PPOF-02, two-fold field concentration): high-resistant tolerance
